Test results as given in patent publication US20230000842A1, “METHODS OF TREATING CARTILAGE DISORDERS THROUGH INHIBITION OF CLK AND DYRK” (SAMUMED, LLC, priority 2019, published 2023).

Columns and labels:
[1] = system: Wnt pathway activity (SW480 colon carcinoma cells stably expressing the Sp5-Luc reporter); assay: Wnt pathway activity screening assay (Sp5-Luc reporter gene assay); conditions: Homo sapiens, SW480, Table 4; SW480 cells stably expressing Sp5-Luc reporter, 10-point dose-response from 10 μM, 36 to 48 hours
[2] = system: MMP-3 levels in supernatant of chondrocytes stimulated with IL1-β; assay: Chondrocyte protection assay compound screening (MMP-3 LANCE Ultra); type: cell-based, human; conditions: Homo sapiens, Chondrocyte, IL1-β 10 ng/mL overnight, 11-point curves from 3 μM to 0.05 nM; for Emax: read-out: Maximum % Inhibition
Description: Human Chondrocyte Cell Culture: Primary human chondrocytes were purchased from Lonza (Walkersville, Md.) and expanded in Chondrocyte Growth Media (CGM, Lonza). Cells between passage 2 and 5 were used for the experiments.
Chondrocytes were plated at 8,000 cells/well in 40 μL/well Chondrocyte Differentiation Medium (Lonza; 500 mL Basal Medium, 25 mL FBS, 0.5 mL GA-1000, 1 mL R3-IGF, 2.5 mL bFGF, 0.5 mL Transferrin, and 1 mL Insulin). After 2 hours of incubation at 37° C. and 5% CO2, IL1-β (Peprotech, Rocky Hill, N.J.) was added to a final concentration of 10 ng/mL. 11 wells in 1 row were left unstimulated for normalization and calculating EC50 values. Cells were incubated at 37° C. and 5% CO2 overnight. Assay plates are spun, 25 μl of supernatant media was collected using (S2 pipettor, Apricot Designs). Cells were lysed using 10 μL of (Cell Titer-Glo, Promega). Luminescent signal detected using an En Vision Multilabel reader (Perkin Elmer). MMP-3 levels were measured in supernatant. Supernatant diluted 1:7 in DMEM. MMP-3 levels in the supernatant were measured using MMP-3 LANCE Ultra detection kit (Perkin Elmer). Briefly, 5 μL of diluted supernatant was transferred to low-volume 384 well plates using (S2 pipettor, Apricot Designs). A standard curve was prepared using MMP-3 analyte (range […]). 1.7 μL of 8× mix of Eu-labelled anti-MMP-3 antibody and ULight labelled anti-MMP-3 antibody was added to the plates using Mantis Liquid handler (Formulatrix). Plates were incubated overnight at room temperature. LANCE signal was detected using an EnVision Multilabel reader (Perkin Elmer), equipped with TR-FRET using excitation wavelength of 320 nm and two emission wavelengths of 615 nm and 665 nm. Data was analyzed according to the kit protocol, using the ratio of […] and the standard curve values were used to calculate the amount of MMP3 in the […] (in pg/ml). The normalized averages (fold change over IL1-β stimulated) for each compound concentration were calculated. EC50 and maximum % inhibition values were calculated using the dose-response nonlinear regression curve-fit in Dotmatics.

CLK2 kinase = CLK2 kinase (Homo sapiens, UniProt P49760); assay: CLK2 kinase activity assay (Z-lyte FRET); type: biochemical; conditions: Z-lyte Ser/Thr 6 peptide, 60 μM ATP, 1 h at room temperature;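 note: FRET read-out as coumarin to fluorescein emission ratio, unphosphorylated peptide as 0% and phosphorylated peptide as 100% controls, duplicate reactions, non-linear regression fit of dose-response curves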
Chain of CLK2 kinase (P49760 whole entry): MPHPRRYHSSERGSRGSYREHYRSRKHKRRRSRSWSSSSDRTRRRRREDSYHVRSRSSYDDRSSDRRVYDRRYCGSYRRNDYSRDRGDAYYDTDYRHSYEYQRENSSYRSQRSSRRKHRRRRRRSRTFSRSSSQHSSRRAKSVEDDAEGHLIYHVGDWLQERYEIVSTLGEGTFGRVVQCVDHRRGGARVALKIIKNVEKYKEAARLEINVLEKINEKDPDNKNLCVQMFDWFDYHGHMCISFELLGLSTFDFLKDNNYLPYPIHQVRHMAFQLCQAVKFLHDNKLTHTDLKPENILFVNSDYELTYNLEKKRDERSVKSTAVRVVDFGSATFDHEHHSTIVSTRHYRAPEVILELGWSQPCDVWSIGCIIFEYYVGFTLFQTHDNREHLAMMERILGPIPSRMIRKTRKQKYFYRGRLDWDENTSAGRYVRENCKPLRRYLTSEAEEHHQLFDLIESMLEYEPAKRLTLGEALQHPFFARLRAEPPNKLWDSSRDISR
Description: This is a non-radioactive assay using fluorescence resonance energy transfer (FRET) between coumarin and fluorescein to detect kinase activity which is represented as a ratio of coumarin emission/fluorescein emission.
The mixture was allowed to incubate with the representative compounds for one hour at room temperature. All reactions were performed in duplicate. Unphosphorylated (“0% Control”) and phosphorylated (“100% control”) forms of Ser/Thr 6 served as control reactions. Additionally, an 11-point dose-response curve of Staurosporine (1 μM top) was run to serve as a positive compound control.
After incubation, Development Reagent A was diluted in Development Buffer then added to the reaction and allowed to further incubate for one hour at room temperature.
Dose-response curves were generated and inhibitory concentration (IC50) values were calculated using non-linear regression curve fit in the Dotmatics' Studies Software (Bishops Stortford, UK).

[3] = system: primary human mesenchymal stem cells (hMSCs); assay: Chondrogenesis screening using primary human mesenchymal stem cells; type: cell-based; conditions: Homo sapiens, Mesenchymal stem cells, hMSC chondrogenesis; for Emax: maximum activity relative to TGF-β3 (10 ng/mL) positive control, read-out: Max. Activity as % TGF-β3 activity; for EC50: concentration required to induce 50% levels of chondrogenesis with TGF-β3 as positive control, read-out: Conc (nM) of 50% TGF-β3 activity
Procedure, shortened: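 Derived values are EC50 for 50% chondrogenesis, maximal activity and the dose giving it. These come from nodule area in passage 3–6 primary hMSCs, expressed as fold change over the mean of 3 same-plate DMSO wells, 2–3 replicates per concentration. TGF-β3 served as positive control.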

CLK3 kinase = CLK3 kinase (Homo sapiens, UniProt P49761); assay: CLK3 kinase activity assay (Z-lyte FRET); type: biochemical; conditions: Z-lyte Ser/Thr 18 peptide, 156 μM ATP, 1 h at room temperature;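 note: kinase activity read as coumarin/fluorescein emission ratio by FRET, unphosphorylated peptide as 0% and phosphorylated peptide as 100% control, values from non-linear regression of dose-response curves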
Chain of CLK3 kinase (P49761 whole entry): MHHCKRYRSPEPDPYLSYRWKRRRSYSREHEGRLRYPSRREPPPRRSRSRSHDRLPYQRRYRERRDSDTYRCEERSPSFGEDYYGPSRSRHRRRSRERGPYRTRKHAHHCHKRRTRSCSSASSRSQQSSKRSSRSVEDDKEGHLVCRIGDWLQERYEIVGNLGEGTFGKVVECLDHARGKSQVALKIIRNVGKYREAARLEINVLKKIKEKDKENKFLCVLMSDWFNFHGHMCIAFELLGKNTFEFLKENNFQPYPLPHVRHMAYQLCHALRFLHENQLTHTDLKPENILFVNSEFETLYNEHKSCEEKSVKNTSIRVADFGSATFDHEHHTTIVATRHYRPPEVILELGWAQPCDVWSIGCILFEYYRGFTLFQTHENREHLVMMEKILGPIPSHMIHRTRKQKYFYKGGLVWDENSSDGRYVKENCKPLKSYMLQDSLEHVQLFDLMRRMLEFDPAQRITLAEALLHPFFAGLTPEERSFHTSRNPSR

| Compound | EC50 [1] [µM] | EC50 (CLK2 kinase) [µM] | EC50 (CLK3 kinase) [µM] | EC50 [3] [nM] | EC50 [2] [µM] | Emax [2] [%] | Emax [3] [%] |
| --- | --- | --- | --- | --- | --- | --- | --- |
| Cc1n[nH]c2ccc(-c3cncc(OC[C@@H](N)Cc4ccccc4)c3)cc12 [compound 35] | 0.262 | – | – | – | ≥ 3 | 99.3 | – |
| Cc1n[nH]c2cc(F)c(-c3cncc(OC4CCNC[C@@H]4F)n3)cc12 (stereo partly drawn) [compound 46] | 0.63 | – | – | – | 1.05 | 100 | 43.8 |
| Cc1n[nH]c2ccc(-c3cncc(NC(CO)Cc4cccc(C(F)(F)F)c4)n3)cc12 (stereo not drawn) [compound 51] | 0.809 | – | – | – | ≥ 3 | 48.1 | – |
| O=C(NC1C[C@@H]1c1ccccc1)c1n[nH]c2ccc(-c3cccnc3)cc12 (stereo partly drawn) [compound 59] | 1.39 | – | – | – | 0.0016 | 99.2 | – |
| CS(=O)(=O)NCc1cc(F)cc(-c2nccc3[nH]c(-c4n[nH]c5ccc(-c6cncc(NC(=O)Cc7ccccc7)c6)nc45)cc23)c1 [compound 530] | > 10 | 0.017 | 0.151 | 10 | – | – | 110 |
| CCNCc1cncc(-c2ccc3[nH]nc(-c4cc5c(-c6cc(F)cc(CNS(C)(=O)=O)c6)cncc5[nH]4)c3c2)c1 [compound 531] | > 10 | 0.005 | 0.052 | – | – | – | 58 |
| CCNCc1cncc(-c2cnc3[nH]nc(-c4cc5c(-c6cc(F)cc(CNS(C)(=O)=O)c6)nccc5[nH]4)c3c2)c1 [compound 532] | > 10 | 0.003 | 0.305 | 300 | – | – | 61.2 |
| CS(=O)(=O)NCc1cc(F)cc(-c2nccc3[nH]c(-c4n[nH]c5ncc(-c6cncc(OCc7ccccc7)c6)cc45)cc23)c1 [compound 537] | 3.99 | 0.013 | 0.329 | – | – | – | 20.6 |
| CS(=O)(=O)NCc1cc(F)cc(-c2cncc3[nH]c(-c4n[nH]c5ccc(-c6cncnc6)nc45)cc23)c1 [compound 538] | 1.03 | 0.002 | 0.058 | 10 | – | – | 106 |
| c1cc2cc(c1)-c1cncc3[nH]c(nc13)-c1n[nH]c3ccc(cc13)-c1cncc(c1)CNC2 [compound 618] | 0.0418 | 0.002 | 0.012 | 200 | – | – | 558 |
| Fc1cccc(-c2cncc3[nH]c(-c4n[nH]c5ccc(-c6cnccn6)nc45)nc23)c1 [compound 625] | > 10 | 0.005 | – | – | ≥ 3 | 70.9 | – |
| Fc1ccc(-c2cccc3[nH]c(-c4n[nH]c5ccc(-c6cncnc6)nc45)nc23)cc1 [compound 628] | > 10 | 0.005 | – | – | ≥ 3 | 54.3 | – |
| O=C(Nc1cncc(-c2ccc3[nH]nc(-c4nc5c(-c6cccc(F)c6)cccc5[nH]4)c3n2)c1)C1CC1 [compound 629] | 1.08 | 0.009 | – | – | 0.0002 | 70 | – |
| O=C(Nc1cncc(-c2ccc3[nH]nc(-c4nc5c(-c6ccccn6)ccnc5[nH]4)c3n2)c1)c1ccccc1 [compound 630] | > 10 | 0.008 | – | – | 0.0051 | 67 | – |
| O=C(Nc1cncc(-c2ccc3[nH]nc(-c4nc5c(-c6cccs6)cccc5[nH]4)c3n2)c1)C1CC1 [compound 631] | 3.38 | 0.01 | – | – | 0.0067 | 72 | – |
| CN(C)CCNc1cc(F)cc(-c2cccc3[nH]c(-c4n[nH]c5ncc(-c6ccncc6)cc45)cc23)c1 [compound 635] | 6.07 | 0.01 | – | – | 0.004 | 78.5 | – |
| O=C(Nc1cncc(-c2cc3c(-c4cc5c(-c6cccc(F)c6)ccnc5[nH]4)n[nH]c3cn2)c1)C1CC1 [compound 636] | 0.097 | 0.009 | – | – | 0.298 | 64.5 | – |

Further lines, with some results ahead:

| EC50 [1] [µM] | EC50 (CLK2 kinase) [µM] | EC50 (CLK3 kinase) [µM] | EC50 [3] [nM] | Compound | EC50 [2] [µM] | Emax [2] [%] | Emax [3] [%] |
| --- | --- | --- | --- | --- | --- | --- | --- |
| 0.479 | 0.072 | – | – | O=C(Nc1c[nH]nc1C(=O)Nc1cncc(-c2cccc(F)c2)c1)c1cncc(F)c1 [compound 2] | 0.0004 | 58.2 | 81.5 |
| 0.679 | 0.095 | – | – | O=C(Nc1cccnc1)Nc1c[nH]nc1C(=O)Nc1ccc(C(F)(F)F)nc1 [compound 16] | 0.0087 | 99.5 | – |
| 3.57 | 0.018 | – | – | COc1cncc(C#Cc2c[nH]nc2C(=O)Nc2ccc(OC3CCN(C)CC3)nc2)c1 [compound 30] | ≥ 3 | 3.4 | – |
| 1.21 | 0.028 | – | – | COc1cncc(C#Cc2c[nH]nc2C(=O)Nc2ccc(OCCN3CCCC3)nc2)c1 [compound 31] | ≥ 3 | 2.4 | – |
| 1.27 | 0.038 | – | – | O=C(Nc1cccnc1)c1n[nH]cc1C#Cc1cncc(OC2CCNCC2)c1 [compound 32] | 0.0002 | 77.8 | – |
| 1.03 | – | – | – | O=C(NC1C[C@@H]1c1ccccc1)c1n[nH]c2ccc(-c3cncc(CN4CCCCC4)c3)cc12 (stereo partly drawn) [compound 76] | 0.0004 | 97.9 | – |
| > 10 | 0.004 | 0.471 | 30 | CS(=O)(=O)NCc1cc(F)cc(-c2nccc3[nH]c(-c4n[nH]c5cnc(-c6cncc(CNCC7CCCC7)c6)cc45)cc23)c1 [compound 534] | – | – | 52.3 |
| 1.85 | 0.006 | 0.053 | – | CS(=O)(=O)NCc1cc(F)cc(-c2cncc3[nH]c(-c4n[nH]c5ncc(-c6cncc(CN7CCCCC7)c6)cc45)cc23)c1 [compound 535] | – | – | 22.7 |
| 1.1 | 0.005 | 0.079 | 10 | CS(=O)(=O)NCc1cc(F)cc(-c2nccc3[nH]c(-c4n[nH]c5ccc(-c6cncc(CN7CCCCC7)c6)nc45)cc23)c1 [compound 536] | – | – | 50.1 |
| 0.577 | 0.002 | 0.012 | 5000 | CN1CCCCN(C)c2nccc3[nH]c(nc23)-c2n[nH]c3ccc(cc23)-c2cncc(c2)C1 [compound 617] | – | – | 231 |
| > 10 | 0.007 | – | – | COc1cccc(-c2cncc3[nH]c(-c4n[nH]c5ccc(-c6cncc(NC(=O)C7CCCCC7)c6)nc45)nc23)c1 [compound 627] | ≥ 3 | 90.7 | – |
| > 10 | 0.003 | – | – | COc1cncc(-c2ccc3[nH]nc(-c4nc5c(N6CCCCC6)ccnc5[nH]4)c3n2)c1 [compound 632] | 0.123 | 72.2 | – |
| 3.66 | 0.008 | – | – | Fc1ccc(-c2cccc3[nH]c(-c4n[nH]c5ncc(-c6cncc(CN7CCCCC7)c6)cc45)cc23)cc1 [compound 634] | 0.0461 | 83.8 | – |
| > 10 | 1.9 | – | – | O=C(Nc1cc2cc(-c3cncs3)ccc2cn1)C1(F)CCCCC1 [compound 637] | ≥ 3 | 39.1 | – |
| > 10 | – | – | – | CN1CCC(C(=O)Nc2cc3cc(-c4cnsc4)cnc3cn2)CC1 [compound 639] | ≥ 3 | 43.7 | – |
| > 10 | – | – | – | O=C(Nc1cc2cc(-c3cnco3)cnc2cn1)C1CCNCC1 [compound 641] | 0.0358 | 48.4 | – |
| > 10 | 9.78 | – | – | CC(F)(F)CN1CCC(C(=O)Nc2cc3cc(-c4cnco4)cnc3cn2)CC1 [compound 642] | ≥ 3 | 29.5 | – |
